One may read the Ki as a dissociation constant, usually derived from enzyme kinetics or from competition with a known ligand.

Where only a bound is given, the exact number is not on record here.

In this assay the target is human M4 receptor (Homo sapiens (Human), UniProt P08173). The assay can be described thus: Binding assay: inhibition of radioligand (tritiated N-methylscopolamine) binding to membranes from CHO cells expressing human M4 receptor. The following applies: CHO cell membranes, 1.5 nM tritiated N-methylscopolamine. On the procedure: Binding affinity (Ki) for the compounds was measured by inhibition of radioligand binding to membranes from CHO cells expressing human M4 receptor. Membranes were prepared by nitrogen cavitation and differential centrifugation as previously described (Hoare et al., Mol. Pharmacol. 2003 March; 63(3): 751-65). The radioligand employed was tritiated N-methylscopolamine, used at a concentration of 1.5 nM. A dose-response of twelve concentrations of compound was used, ranging from […]. The assay buffer was 50 mM HEPES, 100 mM NaCl, 5 mM MgCl2, 1 mM ethylenediaminetetraacetic acid, pH-adjusted to pH 7.4. Membranes, radioligand and compound were incubated together for 90 minutes at 37° C., in a total volume of 150 μL in a 96-well plate. Receptor-bound radioligand was then collected by harvesting the assay over glass fiber filters pretreated with polyethylenimine to trap the cell membranes, using rapid vacuum filtration. Harvesting and radioactivity counting was conducted as previously described (see, e.g., Hoare et al., Mol. Pharmacol. 2003 63(3):751-65); Erratum at Mol. Pharmacol. 2005 July; 68(1): 260).
human M4 receptor, sequence (P08173 whole entry): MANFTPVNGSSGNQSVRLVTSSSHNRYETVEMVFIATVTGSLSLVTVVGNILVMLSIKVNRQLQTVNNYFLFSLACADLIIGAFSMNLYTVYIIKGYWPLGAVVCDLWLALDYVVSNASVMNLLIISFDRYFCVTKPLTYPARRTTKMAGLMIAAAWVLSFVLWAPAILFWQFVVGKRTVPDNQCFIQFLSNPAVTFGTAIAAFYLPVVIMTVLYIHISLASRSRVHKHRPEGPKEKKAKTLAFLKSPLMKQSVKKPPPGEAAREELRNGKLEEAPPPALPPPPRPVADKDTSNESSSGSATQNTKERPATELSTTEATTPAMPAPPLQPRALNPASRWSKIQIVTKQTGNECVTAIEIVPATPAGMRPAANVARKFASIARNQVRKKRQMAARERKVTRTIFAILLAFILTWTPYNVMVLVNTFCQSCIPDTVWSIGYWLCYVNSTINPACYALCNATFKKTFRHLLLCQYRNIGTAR
In the case of `C[C@@H]1CN(c2ncc(S(C)(=O)=O)cn2)[C@@H](C)CN1C(=O)OC1CC2(C1)CN(Cc1ccc(Cl)cc1)C2` [Compound 37, 2-[(4-chlorophenyl)methyl]-2-azaspiro[3.3] heptan-6-yl (2R,5S)-4-(5-methanesulfonylpyrimidin-2-yl)-2,5-dimethyl-piperazine-1-carboxylate], the Ki was less than 100 nM.
For `CCS(=O)(=O)c1cnc(N2C[C@@H](C)N(C(=O)OC3CC4(C3)CN(Cc3ccccc3)C4)[C@@H](C)C2)nc1` [Compound 32, 2-benzyl-2-azaspiro [3.3]heptan-6-yl (2R,6S)-4-[5-(ethane-sulfonyl)pyrimidin-2-yl]-2,6-dimethylpiperazine-1-carboxylate], the Ki is less than 100 nM.
Molecule `COc1ccc(CN2CC3(CC(OC(=O)N4[C@H](C)CN(c5ncc(S(C)(=O)=O)cn5)C[C@@H]4C)C3)C2)cc1` [Compound 60, 2-[(4-methoxyphenyl)methyl]-2-azaspiro[3.3] heptan-6-yl (2R,6S)-4-(5-methanesulfonylpyrimidin-2-yl)-2,6-dimethyl-piperazine-1-carboxylate] returned a Ki of less than 100 nM.
As for `CC[C@H](O)COc1cnc(N2C[C@@H](C)N(C(=O)OC3CC4(C3)CN(Cc3ccccc3)C4)[C@@H](C)C2)nc1` [Compound 57, 2-benzyl-2-azaspiro [3.3]heptan-6-yl (2R,6S)-4-{5-[(2S)-2-hydroxybutoxy]pyrimidin-2-yl}-2,6-dimethyl-piperazine-1-carboxylate], the inhibitory constant (Ki) fell in the range of 100 to 500 nM.
`C[C@@H]1CN(c2ncc(OCC(C)(C)O)cn2)C[C@H](C)N1C(=O)OC1CC2(C1)CN(Cc1ccccc1)C2` [Compound 59, 2-benzyl-2-azaspiro [3.3]heptan-6-yl (2R,6S)-4-[5-(2-hydroxy-2-methylpropoxy)pyrimidin-2-yl]-2,6-dimethyl-piperazine-1-carboxylate] gave a Ki of 100 to 500 nM.
The molecule `C[C@@H]1CN(c2ncc(S(C)(=O)=O)cn2)C[C@H](C)N1C(=O)OC1CC2(C1)CN(Cc1ccc(Cl)cc1)C2` [Compound 36, 2-[(4-chlorophenyl)methyl]-2-azaspiro[3.3] heptan-6-yl (2R,6S)-4-(5-methanesulfonylpyrimidin-2-yl)-2,6-dimethyl-piperazine-1-carboxylate] had a Ki of less than 100 nM.
For `C[C@@H]1CN(c2ncc(S(=O)(=O)C3CC3)cn2)[C@@H](C)CN1C(=O)OC1CC2(C1)CN(Cc1ccccc1)C2` [Compound 20, 2-benzyl-2-azaspiro [3.3]heptan-6-yl (2R,5S)-4-[5-(cyclo-propanesulfonyl)pyrimidin-2-yl]-2,5-dimethyl-piperazine-1-carboxylate], the Ki is less than 100 nM.
Turning to `Cc1ccc(CN2CC3(CC(OC(=O)N4[C@H](C)CN(c5ncc(S(C)(=O)=O)cn5)C[C@@H]4C)C3)C2)cc1` [Compound 61, 2-[(4-methylphenyl)methyl]-2-azaspiro[3.3] heptan-6-yl (2R,6S)-4-(5-methanesulfonylpyrimidin-2-yl)-2,6-dimethyl-piperazine-1-carboxylate], the inhibitory constant (Ki) was no less than 500 nM.
Molecule `C[C@@H]1CN(c2ncc(N3CCC3=O)cn2)C[C@H](C)N1C(=O)OC1CC2(C1)CN(Cc1ccccc1)C2` [Compound 29, 2-benzyl-2-azaspiro [3.3]heptan-6-yl (2R,6S)-2,6-dimethyl-4-[5-(2-oxoazetidin-1-yl)pyrimidin-2-yl] piperazine-1-carboxylate] had an inhibition constant (Ki) of no less than 500 nM.
Consider `C[C@@H]1CN(c2ncc(O)cn2)C[C@H](C)N1C(=O)OC1CC2(C1)CN(Cc1ccccc1)C2` [Compound 51, 2-benzyl-2-azaspiro [3.3]heptan-6-yl (2R,6S)-4-(5-hydroxypyrimidin-2-yl)-2,6-dimethyl-piperazine-1-carboxylate], for which the inhibitory constant (Ki) is no less than 500 nM.
Turning to `C[C@@H]1CN(c2ncc(OC[C@@H](C)O)cn2)C[C@H](C)N1C(=O)OC1CC2(C1)CN(Cc1ccccc1)C2` [Compound 56, 2-benzyl-2-azaspiro [3.3]heptan-6-yl (2R,6S)-4-{5-[(2R)-2-hydroxypropoxy]pyrimidin-2-yl}-2,6-dimethyl-piperazine-1-carboxylate], the Ki fell in the range of 100 to 500 nM.
Consider `C[C@@H]1CN(c2ncc([S+](C)[O-])cn2)C[C@H](C)N1C(=O)OC1CC2(C1)CN(Cc1ccccc1)C2` (stereo partly drawn) [Compound 23, 2-benzyl-2-azaspiro [3.3]heptan-6-yl (2R,6S)-4-(5-methane-sulfinylpyrimidin-2-yl)-2,6-dimethylpiperazine-1-carboxylate], for which the Ki is 100 to 500 nM.
In turn, `CC(C)S(=O)(=O)c1cnc(N2C[C@@H](C)N(C(=O)OC3CC4(C3)CN(Cc3ccccc3)C4)[C@@H](C)C2)nc1` [Compound 42, 2-benzyl-2-azaspiro [3.3]heptan-6-yl (2R,6S)-2,6-dimethyl-4-[5-(propane-2-sulfonyl)pyrimidin-2-yl]piperazine-1-carboxylate] displayed a Ki of 100 to 500 nM.
As to `C[C@@H]1CN(c2ncc(OCC(O)CF)cn2)C[C@H](C)N1C(=O)OC1CC2(C1)CN(Cc1ccccc1)C2` (stereo partly drawn) [Compound 53, 2-benzyl-2-azaspiro [3.3]heptan-6-yl (2R,6S)-4-[5-(3-fluoro-2-hydroxypropoxy)pyrimidin-2-yl]-2,6-dimethyl-piperazine-1-carboxylate], the inhibition constant (Ki) is no less than 500 nM.
For `CCS(=O)(=O)c1cnc(N2CCN(C(=O)OC3CC4(C3)CN(Cc3ccccc3)C4)[C@H](C)C2)nc1` [Compound 21, 2-benzyl-2-azaspiro [3.3]heptan-6-yl (2R)-4-[5-(ethanesulfonyl)-pyrimidin-2-yl]-2-methylpiperazine-1-carboxylate] the value was less than 100 nM; for `CCS(=O)(=O)c1cnc(N2C[C@@H](C)N(C(=O)NC3CC4(C3)CN(Cc3ccccc3)C4)C[C@@H]2C)nc1` [Compound 5, (2R,5S)-N-{2-benzyl-2-azaspiro[3.3]heptan-6-yl}-4-[5-(ethanesulfonyl)pyrimidin-2-yl]-2,5-dimethylpiperazine-1-carboxamide], less than 100 nM.
With `C[C@@H]1CN(c2ncc(S(=O)(=O)C3CC3)cn2)C[C@H](C)N1C(=O)NC1CC2(C1)CN(Cc1ccccc1)C2` [Compound 3, (2R,6S)-N-{2-benzyl-2-azaspiro[3.3]heptan-6-yl}-4-[5-(cyclopropanesulfonyl)pyrimidin-2-yl]-2,6-dimethylpiperazine-1-carboxamide], the Ki is less than 100 nM.
Turning to `CC[C@@H](O)COc1cnc(N2C[C@@H](C)N(C(=O)OC3CC4(C3)CN(Cc3ccccc3)C4)[C@@H](C)C2)nc1` [Compound 58, 2-benzyl-2-azaspiro [3.3]heptan-6-yl (2R,6S)-4-{5-[(2R)-2-hydroxybutoxy]pyrimidin-2-yl}-2,6-dimethyl-piperazine-1-carboxylate], the inhibition constant (Ki) fell in the range of 100 to 500 nM.
The molecule `CCS(=O)(=O)c1cnc(N2C[C@@H](C)N(C(=O)NC3CC4(C3)CN(Cc3ccccc3)C4)[C@@H](C)C2)nc1` [Compound 2, (2R,6S)-N-{2-benzyl-2-azaspiro[3.3]heptan-6-yl}-4-[5-(ethanesulfonyl)pyrimidin-2-yl]-2,6-dimethylpiperazine-1-carboxamide] gave a Ki of less than 100 nM.
`CCS(=O)(=O)c1cnc(N2C[C@@H](C)N(C(=O)OC3CC4(C3)CN(Cc3ccccc3)C4)C[C@@H]2C)nc1` [Compound 11, 2-benzyl-2-azaspiro [3.3]heptan-6-yl (2R,5S)-4-[5-(ethane-sulfonyl)pyrimidin-2-yl]-2,5-dimethylpiperazine-1-carboxylate] displayed a Ki of less than 100 nM.
In the case of `C[C@@H]1CN(c2ncc3c(n2)CCS3(=O)=O)C[C@H](C)N1C(=O)OC1CC2(C1)CN(Cc1ccccc1)C2` [Compound 39, 2-benzyl-2-azaspiro [3.3]heptan-6-yl (2R,6S)-4-{5,5-dioxo-6H, 7H-5λ^6-thieno[3,2-d]pyrimidin-2-yl}-2,6-dimethylpiperazine-1-carboxylate], the Ki was 100 to 500 nM.
`C[C@@H]1CN(c2ccc(S(C)(=O)=O)cc2)C[C@H](C)N1C(=O)NC1CC2(C1)CN(Cc1ccccc1)C2` [Compound 9, (2R,6S)-N-{2-benzyl-2-azaspiro[3.3]heptan-6-yl}-4-(4-methanesulfonyl-phenyl)-2,6-dimethyl-piperazine-1-carboxamide] registered a Ki of no less than 500 nM.
Turning to `C[C@@H]1CN(c2ncc(S(=O)(=O)C(F)F)cn2)[C@@H](C)CN1C(=O)OC1CC2(C1)CN(Cc1ccccc1)C2` [Compound 24, 2-benzyl-2-azaspiro [3.3]heptan-6-yl (2R,5S)-4-(5-difluoromethanesulfonyl-pyrimidin-2-yl)-2,5-dimethylpiperazine-1-carboxylate], the inhibition constant Ki is less than 100 nM.
Turning to `C[C@@H]1CN(c2ncc(S(C)(=O)=O)cn2)[C@@H](C)CN1C(=O)NC1CC2(C1)CN(Cc1ccccc1)C2` [Compound 4, (2R,5S)-N-{2-benzyl-2-azaspiro[3.3]heptan-6-yl}-4-(5-methanesulfonyl-pyrimidin-2-yl)-2,5-dimethylpiperazine-1-carboxamide], the Ki is 100 to 500 nM.
Consider `C[C@@H]1CN(c2ncc(S(=O)(=O)C3CC3)cn2)[C@@H](C)CN1C(=O)NC1CC2(C1)CN(Cc1ccccc1)C2` [Compound 6, (2R,5S)-N-{2-benzyl-2-azaspiro[3.3]heptan-6-yl}-4-[5-(cyclopropane-sulfonyl)pyrimidin-2-yl]-2,5-dimethylpiperazine-1-carboxamide], for which the Ki was less than 100 nM.
As to `C[C@@H]1CN(c2ncc(N3CCCC3=O)cn2)C[C@H](C)N1C(=O)OC1CC2(C1)CN(Cc1ccccc1)C2` [Compound 30, 2-benzyl-2-azaspiro [3.3]heptan-6-yl (2R,6S)-2,6-dimethyl-4-[5-(2-oxopyrrolidin-1-yl)pyrimidin-2-yl]piperazine-1-carboxylate], the Ki is no less than 500 nM.
